Measured values: patent EP0804408B1, “NOVEL 4-SUBSTITUTED 2,6-DI-TERT-BUTYLPHENOL COMPOUNDS, PHARMACEUTICAL COMPOSITIONS CONTAINING SAME AND PREPARATION METHOD THEREFOR” (priority 1994, dated 1996)

System: cellules MT4
Assay: Cytotoxicity control on MT4 cells (uncontaminated AVF1 samples, diluted and ultracentrifuged)
Type: cell-based, humaines
Conditions: non contaminé, dilué et centrifugé, inoculated at dilution 1/4, 10 days culture
Method: • Contrôles négatifs : • . Les cellules utilisées pour le titrage, non infectées (culture témoin). • . les trois concentrations de AVF1 utilisées dans l'étude, diluées en tampon NTE et ultracentrifugées. Ces échantillons (contrôles négatifs) ont été utilisés pour vérifier l'absence de toxicité due à des traces résiduelles de AVF1, sur les cellules MT4. • Contrôles positifs : • . Le VIH-1 dilué en milieu de culture à la dilution réalisée pour l'étude, immédiatement aliquoté et stocké à -80°C (contrôle positif). • . Le VIH-1 dilué en milieu de culture à la dilution réalisée pour l'étude, puis dilué en tampon NTE, ultracentrifugé, filtré sur un filtre de 0,45 µm, aliquoté, stocké à -80°C et titré ultérieurement (contrôle de centrifugation). • . Le VIH-1 dilué en milieu de culture à la dilution réalisée pour l'étude, laissé 10 minutes à température ambiante, puis dilué en tampon NTE, ultracentrifugé, filtré sur un filtre de 0,45 µm, aliquoté, stocké à -80°C et titré ultérieurement (contrôle expérimental).
Le contrôle de toxicité a été réalisé dans des conditions identiques à celles décrites pour la méthode de titrage, mais en inoculant les cellules MT4 avec les échantillons non contaminés par le VIH-1 et décrits précédemment (contrôle négatif).
Le critère de non toxicité du produit est établi a été établi en comparant l'aspect morphologique et la viabilité des cellules MT4 inoculées avec du milieu de culture (culture témoin) ou avec les échantillons non contaminés (contrôles négatifs) après 10 jours de culture.

CC(C)(C)c1cc(C(=O)OCCOCCOCCOCCOCCOCCOCCOCCO)cc(C(C)(C)C)c1O [AVF1, 3,5-di-t-butyl-4-hydroxybenzoate d'octaoxyéthylèneglycol]
Remarques (toxicité sur cellules MT4) (AVF1 dilué à 0,5%): Non toxique (échantillon inoculé à la dilution 1/4)
Remarques (toxicité sur cellules MT4) (AVF1 dilué à 1%): Non toxique (échantillon inoculé à la dilution 1/4)
Remarques (toxicité sur cellules MT4) (AVF1 dilué à 2%): Non toxique (échantillon inoculé à la dilution 1/4)
